Assay results from paper PMC13147306 (The Febs Journal, 2025).

Legend:
[1] = target: T1, DnrK (Streptomyces peucetius, UniProt Q06528); test: O-methylation assay, LC-MS/HPLC; type: biochemical; settings: 0.5 mM substrate, 2 mM SAM, 5 μM enzyme, HEPES-NaOH pH 8, 37 °C, 24 h
T1 sequence (Q06528 1-356): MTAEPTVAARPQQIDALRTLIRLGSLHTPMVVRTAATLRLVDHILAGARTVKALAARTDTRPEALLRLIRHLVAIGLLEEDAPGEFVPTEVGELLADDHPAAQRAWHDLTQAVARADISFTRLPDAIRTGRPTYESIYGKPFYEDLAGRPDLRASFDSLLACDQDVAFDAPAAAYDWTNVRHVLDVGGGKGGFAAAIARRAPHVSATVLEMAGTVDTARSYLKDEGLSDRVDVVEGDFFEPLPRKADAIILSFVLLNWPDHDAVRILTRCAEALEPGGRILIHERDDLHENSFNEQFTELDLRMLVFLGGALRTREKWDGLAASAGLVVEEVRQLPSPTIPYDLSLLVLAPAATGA

[2] = tested on: AthePKS; test: steady-state kinetics, HPLC of product 1b; type: biochemical; settings: read-out: apparent Km; 400 μM malonyl-CoA, 50 mM Tris/HCl pH 7.5, 37 °C

Structure (SMILES) | O-methylation assay, LC-MS/HPLC [1] | Km [2]
Cn1c(=O)cc(O)c2ccccc21 [1b, 4-hydroxy-1-methyl-2-quinolone] | DnrK was still the best‐performing enzyme | 
O=c1cc(O)c2ccccc2[nH]1 [2b] | it was also active with the other heterocycles 2b, 6b, and 8b | 
CNc1ccccc1C(=O)SCCNC(=O)CCNC(=O)[C@H](O)C(C)(C)COP(=O)(O)OP(=O)(O)OC[C@H]1O[C@@H](n2cnc3c(N)ncnc32)[C@H](O)[C@@H]1OP(=O)(O)O [1a, N-methylanthraniloyl-CoA] |  | 42.6 µM
